Among the data in patent US20260125359A1, “HETEROARYL COMPOUNDS AS MULTI-TARGET PROTEIN KINASE INHIBITORS” (FUJIAN HAIXI PHARMACEUTICALS CO., LTD., priority 2023, published 2026) are IC50 values, retold here.

Molecules are shown by their SMILES.

In this test the test system is M-NFS-60 cells. In words: M-NFS-60 cell in vitro assay (CCK, 48 h, M-CSF factor medium). The format is cell-based. Particulars: M-NFS-60 cells; read-out: M-NFS-60cellassay IC50. In short, it runs like this: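 Mouse M-NFS-60 cells (2000/well) in RPMI-1640 with 10% serum and M-CSF (25 ng/ml) were pre-incubated 4 h, then exposed to DMSO-diluted compound gradients for 48 h at 5% CO2. Viability read by CCK, 2 h, OD 450 nm; IC50 from curve fitting.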
As to `CN1CCC[C@H]1c1nc(Nc2cccc3c2CC[C@@H]3Nc2cnc3cn(C)nc3c2)no1` [Compound 93c], the concentration for half-maximal inhibition (IC50) (as a rule, the point on the concentration scale where inhibition reaches its midpoint) lay in the range of 50 to 200 nM.

In the case of `Cn1cc2ncc(N[C@H]3CCc4c(Nc5noc(C6(C)CC6)n5)cccc43)cc2n1` [Compound 93d], the IC50 is less than 50 nM.

As for `Cn1cc2ncc(N[C@H]3CCc4c(Nc5noc(C6(CO)CC6)n5)cccc43)cc2n1` [Compound 93e], the 50% inhibitory concentration (IC50) was in the range of 50 to 200 nM.

On to `Cn1cc2ncc(N[C@H]3CCc4c(Nc5noc(C(C)(C)C(F)(F)F)n5)cccc43)cc2n1` [Compound 93f], for which the IC50 was less than 50 nM.

Consider `Cn1cc2ncc(N[C@H]3CCc4c(Nc5noc(C6(C(F)(F)F)CC6)n5)cccc43)cc2n1` [Compound 93g], for which the IC50 was less than 50 nM.

As for `Cn1cc2ncc(N[C@H]3CCc4c(Nc5noc(C6(C(F)(F)F)CCC6)n5)cccc43)cc2n1` [Compound 93h], the IC50 is less than 50 nM.

In the case of `Cn1cc2ncc(N[C@H]3CCc4c(Nc5noc(C(C)(C)C)n5)cccc43)cc2n1` [Compound 93i], the IC50 was less than 50 nM.

With `Cn1cc2ncc(N[C@H]3CCc4c(Nc5noc(C6CC6)n5)cccc43)cc2n1` [Compound 93j], the half-maximal inhibitory concentration (IC50) is 200 to 500 nM.

Regarding `Cn1cc2ncc(N[C@H]3CCc4c(Nc5noc(C6CCCC6)n5)cccc43)cc2n1` [Compound 93k], the IC50 was less than 50 nM.

As to `Cn1cc2ncc(N[C@H]3CCc4c(Nc5noc(C6(C(F)(F)F)CCCC6)n5)cccc43)cc2n1` [Compound 93l], the half-maximal inhibitory concentration (IC50) was less than 50 nM.

On to `Cn1cc2ncc(N[C@H]3CCc4c(Nc5noc(C6(C)CCCC6)n5)cccc43)cc2n1` [Compound 93m], for which the IC50 is less than 50 nM.

Take `Cn1cc2ncc(N[C@H]3CCc4c(Nc5noc(C6(C)CCC6)n5)cccc43)cc2n1` [Compound 93n]: the concentration for half-maximal inhibition (IC50) was less than 50 nM.

Turning to `Cn1cc2ncc(N[C@H]3CCc4c(Nc5noc(C(C)(C)CF)n5)cccc43)cc2n1` [Compound 93o], the half-inhibitory concentration (IC50) is less than 50 nM.

Consider `Cn1cc2ncc(N[C@H]3CCc4c(Nc5noc(C(F)(F)F)n5)cccc43)cc2n1` [Compound 93p], for which the IC50 was greater than 500 nM.

As for `Cn1cc2ncc(N[C@H]3CCc4c(Nc5noc(C67CC(C6)C7)n5)cccc43)cc2n1` [Compound 93q], the IC50 is less than 50 nM.

For `Cn1cc2ncc(N[C@H]3CCc4c(Nc5noc(C67CC(F)(C6)C7)n5)cccc43)cc2n1` [Compound 93r], the IC50 is less than 50 nM.

Turning to `CN(c1cnc2cnn(C)c2c1)[C@H]1CCc2c(Nc3cc(C(C)(C)C)on3)cccc21` [Compound 94, (S)—N^4-(5-(tert-butyl)isoxazol-3-yl)-N^1-methyl-N^1-(1-methyl-1H-pyrazolo[4,3-b]pyridin-6-yl)-2,3-dihydro-1H-indene-1,4-diamine], the 50% inhibitory concentration (IC50) lay in the range of 200 to 500 nM.

With `Cn1ncc2ncc(O[C@H]3CCc4c(Nc5cc(C(C)(C)C)on5)cccc43)cc21` [Compound 95, (S)-5-(tert-butyl)-N-(1-((1-methyl-1H-pyrazolo[4,3-b]pyridin-6-yl)oxy)-2,3-dihydro-1H-inden-4-yl) isoxazol-3-amine], the IC50 fell in the range of 200 to 500 nM.

With `Cn1cc2ncc(N[C@H]3CCc4c(CNc5cccc(C6CC6)c5)cccc43)cc2n1` [Compound 96a], the IC50 was in the range of 50 to 200 nM.

As to `Cc1cccc(NCc2cccc3c2CC[C@@H]3Nc2cnc3cn(C)nc3c2)c1` [Compound 96b], the half-maximal inhibitory concentration (IC50) fell in the range of 50 to 200 nM.

Consider `Cn1cc2ncc(N[C@H]3CCc4c(CNc5cccc(F)c5)cccc43)cc2n1` [Compound 96c], for which the IC50 is greater than 500 nM.

With `Cn1cc2ncc(N[C@H]3CCc4c(CNc5nc(C6CC6)cs5)cccc43)cc2n1` [Compound 96d], the IC50 was greater than 500 nM.

With `O=C(Nc1cccc(C2CC2)c1)c1cccc2c1CC[C@@H]2Nc1cnc2cn[nH]c2c1` [Compound 97, (S)-1-((1H-pyrazolo[4,3-b]pyridin-6-yl)amino)-N-(3-cyclopropylphenyl)-2,3-dihydro-1H-indene-4-carboxamide], the IC50 was less than 50 nM.
